Data taken from patent publication US12569542B2, “Treatment of cancer with immune stimulators” (SciClone Pharmaceuticals International (SG) PTE. LTD., priority 2014, dated 2026).
Where two headings read alike, the source gives them in different places. Where no end group is shown, it is not given here.

What was measured:
[1] = system: B16F10 murine melanoma; experiment: Subcutaneous B16F10 murine melanoma model, cisplatin positive control (separate historical control study); type: in vivo, mice
Excerpt: (§1) B16F10 murine melanoma model is derived from MB16 line by successive selection of metastatic clones. B16F1 to B16F10 (ATCC Number CRL-6475™) were generated, with F10 being passaged in mice for 10 times, and thus highly metastatic. This model is widely used in studying metastasis mechanisms, evaluating cancer therapeutics. It is also one of the most common syngeneic models for cancer immunotherapy. Both subcutaneous and experimental metastasis models are very useful.
(§2) Tumor volumes and body weights were monitored throughout the study. Cisplatin was administered to the positive control group in a separate historical control study. The negative control group was administered with vehicle only in all studies.
B16F10 mice treated with cisplatin typically show reduced tumor volume (FIG. 1A and Table 3).

[2] = system: B16F10 Murine Melanoma (lung metastasis foci); experiment: Systemic B16F10 murine melanoma model, lung metastasis foci (independent laboratory); type: in vivo, C57BL/6 mice
[3] = system: B16-F10 cells (lung metastases); conditions: for Mean Met Count / Percent Inhibition: Day 16; for Mean Met Count: SR1 220.51 μg/animal sc bid to end, Anti-PD-1-SCE 100 μg/animal ip biwk ×3, combination at the same doses, Cyclophosphamide 300 mg/kg ip Qd ×1; for Percent Inhibition: [1 − (T/C)] × 100, compared to Group 1 (vehicle); for Deaths NTR (non-treatment-related death) / Deaths TR (treatment-related death): n = 10 per group
Procedure: (§3) The animals were fed ad libitum water (reverse osmosis, 1 ppm Cl) and NIH 31 Modified and Irradiated Lab Diet® consisting of 18.0% crude protein, 5.0% crude fat, and 5.0% crude fiber. The mice were housed on irradiated Enrich-o'cobs™ bedding in static microisolators on a 12-hour light cycle at 20-22° C. (68-72° F.) and 40-60% humidity. DRS-NC specifically complies with the recommendations of the Guide for Care and Use of Laboratory Animals with respect to restraint, husbandry, surgical procedures, feed and fluid regulation, and veterinary care. The animal care and use program at DRS-NC is accredited by the Association for Assessment and Accreditation of Laboratory Animal Care International, which assures compliance with accepted standards for the care and use of laboratory animals.
(§4) A sixth group of animals was included as the “look-see” group (n=9). B16-F10 cells were harvested during log-phase growth and resuspended at a concentration of 7.5×10^5 cells/mL in PBS. Each mouse received an intravenous (i.v.) tail vein injection of 1.5×10^5 B16-F10 cells (0.2 mL cell suspension) on D1 of the study.
(§5) Test Articles: Anti-PD1 alpha peptide (coded as anti-PD-1-SCE, Lot. No. 5177/0214) and thymosin alpha-1 peptide (Thymalfasin, code-named SR1, Lot. No. 1402-224). DRS-NC assigned code names for the purpose of confidentiality during in-house testing. […] Dosing was not adjusted per body weight. Anti-PD-1-SCE antibody was diluted in PBS to yield a 10.0 mg/mL dosing solution, which provided a 100 mg/kg dosage in a dosing volume of 10 mL/kg. Dosing was not adjusted per body weight. […] Dosing was adjusted per body weight.
(§6) Endpoint: The endpoint of the B16MET-e117 study was defined as 100 metastases per lung set. Two to three animals from the “look-see” group were euthanized in three days intervals beginning on Day 9 and lung metastatic foci were counted. […] The study was terminated on D16 and all animals were euthanized and their metastases counted. Percent inhibition was defined as the difference between the number of metastatic foci of the designated control group and the number of metastatic foci of the drug-treated group, expressed as a percentage of the number of metastatic foci of the designated control group: % Inhibition=[1−(#Focidrug-treated/#Focicontrol)]×100
(§7) Toxicity: Animals were weighed daily for the first five days of the study and twice weekly thereafter. […] Acceptable toxicity was defined as a group mean body-weight loss of less than 20% during the study and not more than one treatment-related (TR) death among ten treated animals. Any dosing regimen resulting in greater toxicity is considered above the maximum tolerated dose (MTD). A death is classified as TR if attributable to treatment side effects as evidenced by clinical signs and/or necropsy, or if due to unknown causes during the dosing period or within fourteen days of the last dose. A death is classified as non-treatment-related (NTR) if there is no evidence that death was related to treatment side effects.
Statistical and Graphical Analyses: Prism (GraphPad) for Windows 6.02 was used for all graphical presentations and statistical analyses. The Mann-Whitney U-test, for analysis of medians, was used to determine the statistical significance between D16 B16F10 metastatic foci in control and treated groups. Two-tailed statistical analyses were conducted at P=0.05. A “box and whiskers” diagram was constructed to show the distribution of enumerated metastatic foci for each treatment group on D16.
Prism reports results as non-significant (ns) at P>0.05, significant (symbolized by “*”) at 0.01<P≤0.05, very significant (“**”) at 0.001<P≤0.01, and extremely significant (“***”) at P≤0.001.

[4] = system: B16-F10 cells (lung metastases); conditions: for Mean Met Count: Day 15; for Inhibition (%): compared to Group 1; for Deaths NTR / Deaths TR: n = 10
Procedure: as §3, §4, §5, §6, §7
B16F10 Mouse Lung Metastatic Melanoma Model was developed. About 1.5×10^5 B16-F10 cells (0.2 mL cell suspension) were grown in vitro and administered intravenously (Day 0) to female B6D2F1/Crl mice. On Day 1 dosing with test agents initiated.
A “look see”-untreated-group was set to evaluate, over a period of 15 days, the number of metastasis. […] Three days later other three mice were examined. When the met count reached approximately 50-100 counts, all groups in the study were sacrificed and final met counts were established. The “look see” group count was not included in the final efficacy analysis. 50-100 met count defined as the target number because most of the individual metastasis could be count easily and mets were less likely to merge with each other difficulty the counting.

[5] = system: IL-1β; experiment: Biomarker evaluation in subcutaneous B16F10 murine melanoma model (FIG. 4A); type: in vivo, C57BL/6 mice; conditions: subcutaneously twice a day for 6 days at 0.02, 0.06, 0.2, 0.3, 2, or 6 mg/kg, D4 and D7 after start of dosing
Procedure: (§8) FIG. 4A depicts evaluation of IL-1β in subcutaneous B16F10 murine melanoma model in C57BL/6 mice treated with thymosin. ZADAXIN™ (thymalfasin) was administered to mice subcutaneously twice a day for 6 days at 0.02, 0.06, 0.2, 0.3, 2, or 6 mg/kg 10 μL/g. IL-1β levels were lower in ZADAXIN™ (thymalfasin) treated groups compared to vehicle treated groups at D4 and D7 after start of dosing.
(§9) In the studies described above, a group of potential biomarkers were tested in, including IL-7, 11-18, TREM-1, IFN-α, procalcitonin, GM-CSF, IL-1α, IFN-γ, TNF a, IL-2, IL-4, IL-5, IL-6, IL-10, IL-12p70, and IL-1β.

[6] = system: B16F10 murine melanoma; experiment: Subcutaneous B16F10 murine melanoma model, thymosin (Study No. 1 and Study No. 2); type: in vivo, C57BL/6 mice; conditions: for mean tumor size / T/C value: day 14 post tumor inoculation; for tumor growth delay: at tumor size of 1,140 mm^3
Excerpt: as §1
To study the effect of thymosin in treating melanoma, thymosin alpha peptide (ZADAXIN) was administered to mice inoculated with B16F10 in two separate studies:
as §2

[7] = system: IL-6; experiment: Biomarker evaluation in subcutaneous B16F10 murine melanoma model (FIG. 4C); type: in vivo, C57BL/6 mice; conditions: subcutaneously twice a day for 6 days at 0.02, 0.06, 0.2, 0.3, 2, or 6 mg/kg, D4 and D7 after start of dosing
Procedure: as §8, with “4C” for “4A”, “IL-6” for “IL-1β”
as §9

[8] = system: IL-4; experiment: Biomarker evaluation in subcutaneous B16F10 murine melanoma model (FIG. 4B); type: in vivo, C57BL/6 mice; conditions: subcutaneously twice a day for 6 days at 0.02, 0.06, 0.2, 0.3, 2, or 6 mg/kg, D4 and D7 after start of dosing
Procedure: as §8, with “4B” for “4A”, “IL-4” for “IL-1β”, “higher” for “lower”
as §9

[9] = system: IL-1β; experiment: Biomarker evaluation in subcutaneous B16F10 murine melanoma model (FIG. 4D); type: in vivo, C57BL/6 mice; conditions: subcutaneously twice a day for 6 days at 0.02, 0.06, 0.2, 0.3, 2, or 6 mg/kg, D4 and D7 after start of dosing
Procedure: as §8, with “4D” for “4A”
as §9

[10] = Group 9: Cyclophosphomide 300 mg/kg
[11] = Group 13: Cyclophosphamide 300 mg/kg ip qd ×1
[12] = Group 13: Cyclophosphamide 300 mg/kg
[13] = Group 2: SR1 0.4862 μg/animal sc bid to end
[14] = Group 3: SR1 4.86 μg/animal sc bid to end
[15] = Group 4: SR1 48.62 μg/animal sc bid to end

N.N.[Cl][Pt][Cl] [Cisplatin]
Tumor Size (mm^3) on Day 28 ([1]; B16F10 mice treated with cisplatin, Day 28, historical control study): 862 ± 233 mm^3 | body weight ([1]; B16F10 mice treated with cisplatin, FIG. 1B, result of the toxicity of cisplatin): significantly reduced body weight | T/C Value (%) on Day 28 ([1]; cisplatin vs vehicle, Day 28): 30% | T-C (days) at 800 mm^3 ([1]; cisplatin vs vehicle, at tumor size 800 mm^3): >4 days

O=P1(N(CCCl)CCCl)NCCCO1 (centres unmarked) [Cyclophosphamide]
Inhibition (%) [2, 10]: 100% | Number of metastasis foci on day 13 (Mean ± SEM) [2, 10]: 0 ± 0 | Mean Met Count [3]: 0.5 | Percent Inhibition ([3]; doses as E23): 99.5% | Mean BW Nadir ([3]; lowest group mean body weight, as % change from Day 1, Cyclophosphamide nadir on Day 3, doses as E23): −4.3% | Deaths NTR (non-treatment-related death) ([3]; doses as E23): 0 | Deaths TR (treatment-related death) ([3]; doses as E23): 0 | Mean Met Count [4, 11]: 2 | Inhibition (%) [4, 11]: 99% | Mean BW Nadir ([4]; Group 13: Cyclophosphamide 300 mg/kg, % change from Day 1, nadir Day 2): −8.0% | Deaths NTR [4, 12]: 0 | Deaths TR [4, 12]: 0

thymosin alpha 1 (Ac-SDAAVDTSSEITTKDLKEKKEVVEEAEN) [TA1]
IL-1β levels compared to vehicle treated groups [5]: lower | tumor growth compared with vehicle treated group ([6]; all doses tested, FIG. 2 and FIG. 3): reduced tumor growth | tumor growth compared with vehicle treated group (FIG. 3) ([6]; several different doses, all tested doses): statistically significant reduced tumor growth | mean tumor size ([6]; study I, TA1 0.2 mg/kg bid i.p. for 7 days): 1,148 mm^3 | tumor growth delay ([6]; study I, TA1 0.2 mg/kg): 1.5 days | T/C value ([6]; study I, TA1 0.2 mg/kg): 57.56% | mean tumor size ([6]; study I, TA1 2 mg/kg bid i.p. for 7 days): 1,384 mm^3 | tumor growth delay ([6]; study I, TA1 2 mg/kg): 0.5 days | T/C value ([6]; study I, TA1 2 mg/kg): 69.36% | tumor growth ([6]; study I, TA1 6 mg/kg, decrease didn't reach a significant difference): can delay tumor growth | weight changes by group ([6]; thymosin treated B16F10 mice): no significant weight changes | Inhibition (%) ([2]; Group 3: TA1 0.486 μg/mouse): 20.35% | Number of metastasis foci on day 13 (Mean ± SEM) ([2]; Group 3: TA1 0.486 μg/mouse): 92 ± 9 | Inhibition (%) ([2]; Group 4: TA1 4.86 μg/mouse): 41.83% | Number of metastasis foci on day 13 (Mean ± SEM) ([2]; Group 4: TA1 4.86 μg/mouse): 67 ± 12 | Inhibition (%) ([2]; Group 5: TA1 48.6 μg/mouse): 42.26% | Number of metastasis foci on day 13 (Mean ± SEM) ([2]; Group 5: TA1 48.6 μg/mouse): 66 ± 10 | Mean Met Count [3]: 72.5 | metastases to lung in melanoma model ([3]; Study I): decreases metastases to lung | Percent Inhibition ([3]; doses as E23): 31.5% | Deaths NTR (non-treatment-related death) ([3]; doses as E23): 0 | Deaths TR (treatment-related death) ([3]; doses as E23): 0 | IL-6 levels compared to vehicle treated groups [7]: lower | IL-4 levels compared to vehicle treated groups [8]: higher | IL-1β levels compared to vehicle treated groups (FIG. 4D) [9]: lower | Mean Met Count [4, 13]: 186 | Inhibition (%) [4, 13]: −17% | Deaths NTR ([4]; Group 2: SR1 0.4862 μg/animal): 0 | Deaths TR ([4]; Group 2: SR1 0.4862 μg/animal): 0 | Mean Met Count [4, 14]: 182 | Inhibition (%) [4, 14]: −14% | Deaths NTR ([4]; Group 3: SR1 4.86 μg/animal): 0 | Deaths TR ([4]; Group 3: SR1 4.86 μg/animal): 0 | Mean Met Count [4, 15]: 167 | Inhibition (%) [4, 15]: −5% | Deaths NTR ([4]; Group 4: SR1 48.62 μg/animal): 0 | Deaths TR ([4]; Group 4: SR1 48.62 μg/animal): 0
